Tests used:
Assay type in all cases: cell-based
rat pancreatic islets = test: Veratridine-induced glucagon secretion in rat pancreatic islets; conditions: veratridine 30 μM
hNaV1.3 = molecular target: T1, hNaV1.3 (Homo sapiens, UniProt Q9NY46); test: Voltage-dependent block (VDB) of hNaV1.3, QPatch whole-cell voltage-clamp in HEK-293 cells; conditions: 8 s prepulse to -55 mV; at a given concentration (not given)
T1 construct: (Vanderbilt University, Nashville, Tenn.)
Method: (§1) Voltage-dependent block (VDB) of […] was determined by whole-cell voltage-clamp recordings of sodium current using a QPatch 16× automated electrophysiological system in HEK 293 cells overexpressing Nav 1.3 and Nav 1.7 sodium channels, respectively. VDB of peak current was measured using an 8 s conditioning prepulse (to -55 mV for NaV1.3 and to −60 mV for […]) followed by a test pulse (0 mV, 20 ms). Currents are normalized to the peak current recorded in the absence of drug and expressed as percent inhibition. […] Glucagon secretion in the cells was induced by the treatment with veratridine at 30 μM for 1 hour in Krebs-Ringer buffer containing 0.1% BSA. Percent inhibition of glucagon secretion by Na channel blockers was calculated from the reduction of veratridine-induced glucagon secretion in the absence of drug.
(Vanderbilt University, Nashville, Tenn.). The cells were continuously maintained in a humidified, 5% CO2 atmosphere at 37° C. in DMEM high glucose growth medium supplemented with 10% FBS, 2 mM L-glutamine, 100 U/mL penicillin, 100 μg/mL streptomycin, 1 mg/mL G418 and 3 μg/mL puromycin.
(§2) Whole-cell voltage-clamp recordings were used to measure the activity of test compounds against hNaV1.3 and hNaV1.7. Sodium currents were recorded at room temperature using a QPatch 16× automated electrophysiological system (Sophion Bioscience, Copenhagen, Denmark). Cells were washed with PBS and then incubated with Detachin for 2 minutes at room temperature. Cells were then resuspended in growth media, pelleted by centrifugation and resuspended in CHO-S-SFM II serum free media supplemented with 100 U/mL penicillin, 100 μg/mL streptomycin and 10 mM HEPES. The cells were allowed to recover for 30 min at room temperature with constant stirring and then loaded into the QPatch cell holder.
(§3) The cells were loaded into primed single hole (2 MΩ) large QPlates and the whole-cell configuration was established using the default protocol. Cells were allowed to stabilize for 10 min after establishment of the whole-cell configuration before current was measured. […] All currents are low-pass Bessel filtered at 5 kHz and digitized at 50 kHz.
(§4) Specific voltage-clamp protocols assessing voltage-dependent block (VDB, also termed state-dependent block) are used. VDB of peak current was measured following an 8 s conditioning prepulse (to -55 mV for NaV1.3 and to −60 mV for NaV1.7) followed by a test pulse to 0 mV (20 ms). An interpulse (−120 mV, 10 ms) was used to recover non-drug bound channels from fast inactivation. The prepulse potential was determined by the steady-state inactivation curves for NaV1.3 and NaV1.7. […] Multiple applications of drug were used to ensure complete solution exchange and the cells were allowed to stabilize in the drug containing solution for two minutes. Currents were normalized to the peak current recorded in the absence of drug and expressed as percent inhibition.

hNaV1.7 = hNaV1.7 (Homo sapiens, UniProt Q15858); test: Voltage-dependent block (VDB) of hNaV1.7, QPatch whole-cell voltage-clamp in HEK-293 cells; conditions: 8 s prepulse to −60 mV; at a given concentration (not given)
hNaV1.7, sequence (Q15858 1-1977 isoform Q15858-3): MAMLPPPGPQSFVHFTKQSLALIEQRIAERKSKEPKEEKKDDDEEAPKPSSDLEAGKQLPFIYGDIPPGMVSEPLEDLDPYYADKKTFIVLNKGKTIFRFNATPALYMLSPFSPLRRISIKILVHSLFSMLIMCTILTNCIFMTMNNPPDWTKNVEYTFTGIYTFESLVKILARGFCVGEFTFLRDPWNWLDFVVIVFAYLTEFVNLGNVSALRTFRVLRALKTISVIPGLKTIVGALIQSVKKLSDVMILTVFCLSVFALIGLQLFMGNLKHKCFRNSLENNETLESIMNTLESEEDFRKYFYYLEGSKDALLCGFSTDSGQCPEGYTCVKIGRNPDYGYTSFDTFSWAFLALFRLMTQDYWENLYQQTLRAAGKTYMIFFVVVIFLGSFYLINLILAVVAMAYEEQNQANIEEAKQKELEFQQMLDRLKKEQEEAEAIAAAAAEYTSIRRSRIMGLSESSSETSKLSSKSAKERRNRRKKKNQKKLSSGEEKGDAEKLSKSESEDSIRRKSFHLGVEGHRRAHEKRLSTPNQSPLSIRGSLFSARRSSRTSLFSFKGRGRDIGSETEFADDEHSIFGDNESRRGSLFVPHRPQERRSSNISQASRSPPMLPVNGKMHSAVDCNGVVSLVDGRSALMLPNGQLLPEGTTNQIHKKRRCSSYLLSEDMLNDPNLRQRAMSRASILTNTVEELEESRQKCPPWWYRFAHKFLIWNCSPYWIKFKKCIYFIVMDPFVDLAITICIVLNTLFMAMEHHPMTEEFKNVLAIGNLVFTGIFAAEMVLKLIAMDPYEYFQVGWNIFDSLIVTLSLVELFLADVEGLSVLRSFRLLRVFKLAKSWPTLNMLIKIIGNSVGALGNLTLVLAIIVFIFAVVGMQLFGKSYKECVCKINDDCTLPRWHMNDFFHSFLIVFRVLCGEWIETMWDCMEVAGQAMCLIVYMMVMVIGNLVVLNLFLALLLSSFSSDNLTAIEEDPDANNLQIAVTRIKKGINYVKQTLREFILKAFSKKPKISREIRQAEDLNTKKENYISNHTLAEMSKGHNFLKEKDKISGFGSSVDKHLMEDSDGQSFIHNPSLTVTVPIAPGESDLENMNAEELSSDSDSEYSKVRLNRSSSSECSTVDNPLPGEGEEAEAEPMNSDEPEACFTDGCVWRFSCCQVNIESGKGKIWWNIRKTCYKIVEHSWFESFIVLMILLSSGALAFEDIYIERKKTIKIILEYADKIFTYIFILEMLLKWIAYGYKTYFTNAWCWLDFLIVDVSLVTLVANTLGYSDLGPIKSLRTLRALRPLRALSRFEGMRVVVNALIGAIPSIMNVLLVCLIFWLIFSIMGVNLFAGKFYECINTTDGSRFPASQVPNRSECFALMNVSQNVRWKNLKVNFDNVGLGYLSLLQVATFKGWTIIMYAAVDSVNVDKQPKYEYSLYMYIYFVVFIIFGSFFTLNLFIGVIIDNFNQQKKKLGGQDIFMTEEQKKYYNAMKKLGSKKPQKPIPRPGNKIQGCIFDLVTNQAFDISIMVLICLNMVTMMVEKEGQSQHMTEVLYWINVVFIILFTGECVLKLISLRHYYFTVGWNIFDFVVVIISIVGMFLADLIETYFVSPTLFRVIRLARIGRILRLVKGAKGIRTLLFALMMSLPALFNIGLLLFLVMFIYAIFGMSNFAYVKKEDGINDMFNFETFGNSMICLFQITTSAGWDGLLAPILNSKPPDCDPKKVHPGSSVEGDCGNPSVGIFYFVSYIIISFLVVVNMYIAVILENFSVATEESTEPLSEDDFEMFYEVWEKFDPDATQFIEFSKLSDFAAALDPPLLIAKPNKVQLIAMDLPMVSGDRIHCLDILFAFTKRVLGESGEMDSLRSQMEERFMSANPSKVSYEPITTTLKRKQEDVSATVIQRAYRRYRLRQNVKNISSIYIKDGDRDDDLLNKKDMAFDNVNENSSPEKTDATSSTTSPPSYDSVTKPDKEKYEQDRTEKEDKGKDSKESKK
hNaV1.7, sequence (Q07699 19-218 partner): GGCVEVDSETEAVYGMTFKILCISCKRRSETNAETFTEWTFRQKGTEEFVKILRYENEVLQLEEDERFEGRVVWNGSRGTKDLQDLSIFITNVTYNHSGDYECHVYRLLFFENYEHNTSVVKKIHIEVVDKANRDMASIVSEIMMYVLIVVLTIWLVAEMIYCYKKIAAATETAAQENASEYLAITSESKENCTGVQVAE
Method: as §1
The cells were continuously maintained in a humidified, 5% CO2 atmosphere at 37° C. in MEM growth medium supplemented with 10% FBS, 2 mM L-glutamine, 100 U/mL penicillin, 100 μg/mL streptomycin, 0.6 mg/mL G418 and 2 μg/mL blastocydin.
as §2, §3, §4

T1 sequence (Q9NY46 1-1951 isoform Q9NY46-4): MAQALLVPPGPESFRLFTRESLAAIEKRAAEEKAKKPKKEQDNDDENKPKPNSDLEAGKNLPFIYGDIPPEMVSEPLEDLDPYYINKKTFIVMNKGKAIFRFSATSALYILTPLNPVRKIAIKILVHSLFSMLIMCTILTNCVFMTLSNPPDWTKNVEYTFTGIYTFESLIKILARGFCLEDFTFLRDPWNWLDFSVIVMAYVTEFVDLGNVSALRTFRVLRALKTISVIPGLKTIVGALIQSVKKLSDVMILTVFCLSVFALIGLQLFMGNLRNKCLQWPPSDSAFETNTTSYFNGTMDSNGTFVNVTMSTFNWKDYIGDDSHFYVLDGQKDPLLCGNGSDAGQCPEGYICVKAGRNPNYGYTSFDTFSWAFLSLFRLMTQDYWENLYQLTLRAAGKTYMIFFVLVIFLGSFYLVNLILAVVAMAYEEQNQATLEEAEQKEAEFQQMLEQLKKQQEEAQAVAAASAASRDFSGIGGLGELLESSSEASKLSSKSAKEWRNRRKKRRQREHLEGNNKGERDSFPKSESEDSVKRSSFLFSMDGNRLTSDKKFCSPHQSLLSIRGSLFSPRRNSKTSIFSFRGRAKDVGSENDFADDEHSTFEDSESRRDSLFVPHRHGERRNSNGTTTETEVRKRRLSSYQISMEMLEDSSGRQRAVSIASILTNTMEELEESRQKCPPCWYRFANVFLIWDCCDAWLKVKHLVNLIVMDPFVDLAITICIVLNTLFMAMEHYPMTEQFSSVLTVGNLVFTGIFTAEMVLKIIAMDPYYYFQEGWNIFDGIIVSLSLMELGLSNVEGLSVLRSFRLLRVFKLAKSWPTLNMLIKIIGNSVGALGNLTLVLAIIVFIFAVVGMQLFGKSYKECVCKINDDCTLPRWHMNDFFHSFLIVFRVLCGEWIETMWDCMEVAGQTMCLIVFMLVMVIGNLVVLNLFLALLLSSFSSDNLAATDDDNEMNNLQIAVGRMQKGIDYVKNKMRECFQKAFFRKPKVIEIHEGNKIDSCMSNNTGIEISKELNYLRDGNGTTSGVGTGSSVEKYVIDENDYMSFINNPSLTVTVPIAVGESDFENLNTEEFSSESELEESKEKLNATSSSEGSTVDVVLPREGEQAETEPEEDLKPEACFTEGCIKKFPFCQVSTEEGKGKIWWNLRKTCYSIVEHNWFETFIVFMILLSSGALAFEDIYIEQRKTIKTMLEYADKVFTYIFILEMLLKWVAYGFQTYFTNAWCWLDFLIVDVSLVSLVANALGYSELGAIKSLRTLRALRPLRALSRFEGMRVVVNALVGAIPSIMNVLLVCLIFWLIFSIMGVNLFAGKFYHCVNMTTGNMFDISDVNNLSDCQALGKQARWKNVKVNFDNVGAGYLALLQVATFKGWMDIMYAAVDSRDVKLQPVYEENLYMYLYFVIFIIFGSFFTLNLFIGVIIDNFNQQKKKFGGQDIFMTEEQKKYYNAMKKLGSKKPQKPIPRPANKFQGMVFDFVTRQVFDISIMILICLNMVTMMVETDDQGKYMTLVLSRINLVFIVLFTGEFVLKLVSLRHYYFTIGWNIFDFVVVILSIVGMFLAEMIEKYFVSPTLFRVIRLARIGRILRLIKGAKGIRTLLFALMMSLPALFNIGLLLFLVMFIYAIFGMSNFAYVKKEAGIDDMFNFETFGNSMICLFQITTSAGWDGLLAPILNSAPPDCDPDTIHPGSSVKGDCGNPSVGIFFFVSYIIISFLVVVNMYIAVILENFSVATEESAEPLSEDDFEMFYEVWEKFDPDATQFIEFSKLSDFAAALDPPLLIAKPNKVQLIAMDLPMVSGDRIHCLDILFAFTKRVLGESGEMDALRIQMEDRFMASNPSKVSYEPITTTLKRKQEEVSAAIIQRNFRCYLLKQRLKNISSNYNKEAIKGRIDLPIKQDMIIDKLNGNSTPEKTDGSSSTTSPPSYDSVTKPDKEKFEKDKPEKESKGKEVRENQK
T1 sequence (Q07699 19-218 partner): as the sequence (Q07699 19-218 partner) above
T1 sequence (O60939 30-215 partner): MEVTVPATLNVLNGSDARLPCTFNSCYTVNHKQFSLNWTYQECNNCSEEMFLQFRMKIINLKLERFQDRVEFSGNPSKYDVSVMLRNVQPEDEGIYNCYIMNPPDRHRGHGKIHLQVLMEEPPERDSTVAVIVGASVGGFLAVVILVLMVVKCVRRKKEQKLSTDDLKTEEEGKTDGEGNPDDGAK

Compound | reduction of veratridine-induced glucagon secretion (in words) (rat pancreatic islets) | hNav1.3 VDB % Inhibition (hNaV1.3) [%] | hNav1.7 VDB % Inhibition (hNaV1.7) [%]
COc1ccccc1OCC(O)CN1CCN(CC(=O)Nc2c(C)cccc2C)CC1 (racemic) [Ranolazine, ±-N-(2,6-dimethylphenyl)-4-[2-hydroxy-3-(2-methoxyphenoxy)-propyl]-1-piperazineacetamide] | concentration-dependently reduced | 11.21 | 17.23
FC(F)(F)Oc1ccc(-c2ccc3nnc(C(F)(F)F)n3c2)cc1 [Compound A, 6-(4-(trifluoromethoxy)phenyl)-3-(trifluoromethyl)-[1,2,4]triazolo[4,3-α]pyridine] | concentration-dependently reduced | 65.42 | 87.17

Reference: patent US20140221286A1, “SODIUM CHANNEL BLOCKERS REDUCE GLUCAGON SECRETION” (Gilead Sciences, Inc., priority 2011, published 2014)
